Results published in patent US6372783B1, “Enantiomeric compounds for treatment of cardiac arrhythmias and methods of use” (Aryx Therapeutics, priority 1999, dated 2002).

Tests used:
Male Sprague-Dawley rats = test: Anti-arrhythmic activity in anesthetized rats (benzene/adrenaline challenge; VPB, heart rate, EKG intervals); type: in vivo, rat; conditions: for protection against adrenaline-induced tachyarrhythmia / tachycardia (heart rate): drug administered time 0 to 120 minutes; for PR interval / QRS interval / QT interval / Heart rate (beats/minute) / Inhibition of tachycardia / Number of VPB / Inhibition of VPB: isolated enantiomer as compared to respective racemate; for PR interval / QRS interval / QT interval: EKG; for Heart rate (beats/minute) / Inhibition of tachycardia: adrenaline injection; for Number of VPB / Inhibition of VPB: benzene/adrenaline challenge; for Inhibition of VPB: 4 mg/kg i.v. then 12 mg/kg/h for 2 hours; for VPB-inhibiting activity at the end of the washout period: time 180 min; for inhibition of the formation of ventricular premature beats (VPB) during drug administration: whole period of drug administration (time 0 to 120 min)
Protocol: Anti-arrhythmic Activity in Anesthetized Rats.
Male Sprague-Dawley rats with body weights of 410±30 g (Harlan Sprague Dawley Inc., Indianapolis, Ind.), were anesthetized with sodium pentobarbital (50 mg/kg i.p.—Butler Co., Columbus, Ohio). The skin from the neck area was removed and the jugular veins on both sides were cleared of connective tissue. Both jugular veins and the left carotid artery were isolated, and the latter tied up cranially with a surgical silk (ETHICON 4-0, Ethicon Inc., Australia). A plastic catheter ([…] 19 ga, Vecton Dickinson, Sandy, Utah), filled with a solution containing 10% sodium heparin (Elkins-Sinn Inc., Cherry Hill, N.J.) in normal saline (100 U/ml sodium heparin), was introduced into the artery and fixed with surgical silk.
The catheter was connected to a pressure transducer (OHMEDA P23-XL, Ohmeda Medical Devices Division Inc., Madison, Wis.), filled with the same heparinized 0.9% NaCl solution, to register beat-to-beat arterial pressure. Needle electrodes were inserted s.c., and together with the pressure transducer, were joined to a GOULD TA 2000 recorder. Leads II, aVF and intraarterial blood pressure were monitored simultaneously throughout the experiments and recorded at certain intervals at 50 and 200 mm/sec paper speed.
The surgery was completed with an incision on the trachea where a short plastic tubing was placed and the animal was connected to a rodent-model ventilator (HARVARD Model 683, Harvard Apparatus, Inc., Holliston, Mass.). The animals were ventilated in a controlled way, depending on their spontaneous breathing frequency (55-75/min).
Drug administrations were carried out through i.v. catheters (TERUMO 24 GA*¾″, Terumo Medical Corp., Elkton, Md.) inserted into both jugular veins. The left side was used for drug infusions by means of a syringe pump (SAGE INSTRUMENTS, Model 341B, Orion Res. Inc., Boston, Mass.), and the right side was used for adrenaline injections. The experiments were started after at least 15 minutes of stabilization. Benzene/adrenaline challenges were performed as follows: the respirator inlet was connected to a 50-ml bubbler half-full with benzene (Fisher Scientific, Fair Lawn, N.J.) so that the inspired air was saturated with benzene vapor. The animal was ventilated with benzene vapor for two minutes. The tidal volume was typically 1 ml/100 g of animal. During the last 30 seconds of benzene ventilation, 10 μg/kg adrenaline solution (in 0.9% NaCl) was injected into the right jugular vein. […] These arrhythmias could be elicited repeatedly. After three control VTs (at −30, −20 and −10 minutes), the test compounds were injected slowly during 30 seconds at a dose of 4 mg/kg i.v., immediately followed by a slow infusion of 12 mg/kg/h for 2 hours. The flow rate during the infusion period was 1 ml/h.
There were 5 rats per test compound and each animal served as its own control. The ability of the different drugs to suppress arrhythmias was tested against repeated benzene/adrenaline challenges at 5, 15, 30,45, 60, 90, 120 (end of drug infusion), 135, 150, 165 and 180 minutes after the i.v. bolus injection. The amplitudes of the systolic arterial pressure and diastolic arterial pressure […] with the help of a pressure-amplitude calibration curve. Heart rate, number of ventricular complexes during the occurrence of VTs and VPBs, and certain ECG parameters (PR, QRS, QT durations and RR cycle lengths in msec) were also recorded and measured manually. At each time-point, 3-5 cycles were measured and the average values were entered into EXCEL Windows 97. The average and standard deviation for the five experimental animals per compound were calculated.

[1] = Half-life in human plasma in vitro; type: in vitro ADME; conditions: for half-life in human plasma: 37° C.
Protocol: Half-life in Human Plasma in Vitro.
Venous blood (60 ml) was collected in heparinized 1 5-ml Vacutainer® tubes from the forearm of five human volunteers. Each tube contained 1,000 units of heparin sodium salt. The blood was immediately centrifuged at 2,000 g for 10 minutes and the plasma was collected. Immediately after collection, the plasma was divided into 2-ml aliquots in borosilicate glass tubes (5-ml capacity) capped with a plastic stopper. The tubes were then equilibrated in a 37° C.-water bath for at least 15 minutes before the test samples were added.
Stock solutions were prepared by dissolving 25 μmoles (about 18 mg) of each of the test compounds in 10 ml of deionized water. To each of the glass tubes containing 2 ml of fresh plasma, equilibrated at 37° C., was added 40 μl of the stock solutions (one test compound per tube). The plasma/stock solutions were then mixed. Samples (250 μl) were collected at time 0 (immediately after mixing test compounds in plasma) and then at 30, 60, 90, 120, 180, 240, and 300 minutes. The test tubes were capped, to avoid concentration due to evaporation, and left in the 37° C. bath during the entire experiment. Each aliquot was immediately introduced into a 1.5-ml microfuge tube containing 20 μl of a 0.01% solution of diethyl paranitrophenylphosphate (paraoxon) in ethanol in order to inhibit esterase activity. The tubes were then capped and vortexed, then kept at −20° C. until analysis. The samples were thawed and mixed with 750 μl of a 0.1% solution of trifluoroacetic acid (TFA) in acetonitrile, vortexed for thorough mixing, and then centrifuged at 12,000 g for 15 minutes. The supernatant was collected for injection in the HPLC system.
The HPLC mobile phase consisted of acetonitrile and water containing 0.1% TFA and 400 mg/L benzyltriethylammoniumchloride (BTEAC) in the following proportions and flow rates: 85% acetonitrile and 15% water at 2.0 ml/min. The detection wavelength was set at 242 nm, and the injected volume was 100 μL. The HPLC peaks were recorded, and the integrated values were plotted against time using the SIGMAPLOT software version 4.0 for WINDOWS. The resulting curves were fitted to a first-order exponential decay equation from which hydrolysis half-lives were calculated.

[2] = benzene vapors and adrenaline challenge

SMILES | protection against adrenaline-induced tachyarrhythmia / tachycardia (heart rate) (Male Sprague-Dawley rats; comparison of the forms) | metabolism in human plasma [1] | PR interval (Male Sprague-Dawley rats; anesthetized rats) | QRS interval (Male Sprague-Dawley rats; anesthetized rats) | QT interval (Male Sprague-Dawley rats; anesthetized rats) | Heart rate (beats/minute) (Male Sprague-Dawley rats; anesthetized rats) | Inhibition of tachycardia (Male Sprague-Dawley rats; anesthetized rats) | Number of VPB (Male Sprague-Dawley rats; anesthetized rats) | Inhibition of VPB (Male Sprague-Dawley rats; anesthetized rats) | VPB-inhibiting activity at the end of the washout period (Male Sprague-Dawley rats) | inhibition of the formation of ventricular premature beats (VPB) during drug administration (Male Sprague-Dawley rats; [2]) | half-life in human plasma [1] [h] | effect on QT segment / interval of the EKG (Class-III properties), potency (Male Sprague-Dawley rats; anesthetized rats, comparison of the forms) | anti-arrhythmic activity (VPB inhibition) of the racemate relative to the enantiomers (Male Sprague-Dawley rats; [2])
CC[C@H](C)OC(=O)Cc1oc2ccccc2c1C(=O)c1cc(I)c(OCCN(CC)CC)c(I)c1 [ATI-2042] | very good protection | metabolized in human plasma by esterase enzymes |  |  |  |  |  |  |  |  |  |  |  | 
CCN(CC)CCOc1c(I)cc(C(=O)c2c(CC(=O)OC(C)C(C)C)oc3ccccc23)cc1I (stereo not shown) [ATI-2055] | inhibits the tachycardia | metabolized in human plasma by esterase enzymes |  |  |  |  |  |  |  |  |  |  |  | 
CC[C@@H](C)OC(=O)Cc1oc2ccccc2c1C(=O)c1cc(I)c(OCCN(CC)CC)c(I)c1 [Compound R-2042, (R)-sec-Butyl2-[3-(3,5-diiodo-4-(2-diethylaminoethyloxy)benzoyl)]benzofurane-acetate] |  |  | shorter | no change | no change | lower | longer | lower | longer | completely inactive |  |  |  | 
CCN(CC)CCOc1c(I)cc(C(=O)c2c(CC(=O)O[C@H](C)C(C)C)oc3ccccc23)cc1I [Compound R-2055, (R)-(3-Methyl)-2butyl 2-[3-(3,5-diiodo-4-(2-diethylaminoethyloxy)benzoyl)]benzo-furaneacetate] |  |  | shorter | longer | no change | lower | longer | lower | longer | still retained part of its activity | totally inhibited | 11.7 |  | 
CC[C@H](C)OC(=O)Cc1oc2ccccc2c1C(=O)c1cc(I)c(OCCN(CC)CC)c(I)c1 [Compound S-2042, (S)-sec-Butyl2-[3-(3,5-diiodo-4-(2-diethylaminoethyloxy)benzoyl)]benzofurane-acetate] |  |  | longer | longer | longer | lower | longer | lower | longer | still retained part of its activity | totally inhibited |  | most potent and the longest acting | 
CCN(CC)CCOc1c(I)cc(C(=O)c2c(CC(=O)O[C@@H](C)C(C)C)oc3ccccc23)cc1I [Compound S-2055, (S)-(3-Methyl)-2butyl 2-[3-(3,5-diiodod-4-(2-diethylaminoethyloxy)benzoyl)]benzo-furaneacetate] |  |  | shorter | longer | no change | lower | longer | lower | longer | completely inactive |  | 8.8 |  | 
CC[C@H](C)OC(=O)Cc1oc2ccccc2c1C(=O)c1cc(I)c(OCCN(CC)CC)c(I)c1 [R,S-2042] | least potent and shortest acting |  |  |  |  |  |  |  |  |  |  |  |  | even less active than either the R- or the S-isomer
